From ChEMBL document CHEMBL1201862, “PubChem BioAssay data set” (2004)
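Where inhibition never reached the appropriate level, the endpoint shown equals the highest concentration tested. Otherwise, values were interpolated linearly from a five-concentration, 48-hour dose response in 96-well plates. GI50 is the concentration that inhibits growth by half.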 Calls of active or inactive are those of the source. Cut-off read from the data, not from the text of the source: active = GI50 up to about 1.1 µM and inactive = higher.

Tests used:
Experiment in all cases: NCI tumour cell line growth inhibition, 48 h
786-0 = system: 786-0
ACHN = system: ACHN
BT-549 = system: BT-549
EKVX = system: EKVX
HCT-116 = system: HCT-116
HL-60 = system: HL-60
HOP-62 = system: HOP-62
Hs-578T = system: Hs-578T
KM12 = system: KM12
M14 = system: M14
MCF7 = system: MCF7
MDA-MB-231 = system: MDA-MB-231
NCI-H460 = system: NCI-H460
OVCAR-3 = system: OVCAR-3
SF-295 = system: SF-295
SK-MEL-2 = system: SK-MEL-2
SNB-19 = system: SNB-19
SR = system: SR
U-251 = system: U-251
UACC-62 = system: UACC-62

Structure (SMILES) | GI50 (786-0) | GI50 (ACHN) | GI50 (BT-549) | GI50 (EKVX) | GI50 (HCT-116) | GI50 (HL-60) | GI50 (HOP-62) | GI50 (Hs-578T) | GI50 (KM12) | GI50 (M14) | GI50 (MCF7) | GI50 (MDA-MB-231) | GI50 (NCI-H460) | GI50 (OVCAR-3) | GI50 (SF-295) | GI50 (SK-MEL-2) | GI50 (SNB-19) | GI50 (SR) | GI50 (U-251) | GI50 (UACC-62)
CN(C)c1ccc(/C=C/C(=O)c2ccc(O)cc2)cc1 | 7.64 µM (inactive) | 18.8 µM (inactive) | 6.08 µM (inactive) | 31.3 µM (inactive) | 3.69 µM (inactive) | 1.79 µM (inactive) | 10.1 µM (inactive) | 17.4 µM (inactive) | 3.25 µM (inactive) | 4.14 µM (inactive) | 4.11 µM (inactive) | 22.3 µM (inactive) | 4.72 µM (inactive) | 2.9 µM (inactive) | 4.58 µM (inactive) | 14 µM (inactive) | 25.1 µM (inactive) | 0.33 µM (active) | 3.99 µM (inactive) | 4.08 µM (inactive)
Cc1ccc(-c2nnc(-c3ccc4ccccc4c3)o2)cc1 | 11.9 µM (inactive) | > 100 µM (inactive) | 13.7 µM (inactive) | 40.2 µM (inactive) | 23.6 µM (inactive) | 2.93 µM (inactive) | 18 µM (inactive) | 23 µM (inactive) | > 100 µM (inactive) | 12.3 µM (inactive) | > 100 µM (inactive) | 25.8 µM (inactive) | 83 µM (inactive) | 99.1 µM (inactive) | 36.2 µM (inactive) | 2.92 µM (inactive) | > 96.6 µM (inactive) | 7.36 µM (inactive) | 27.7 µM (inactive) | 13 µM (inactive)
CN(N=O)c1ccc(/C=C/c2ccnc3ccccc23)cc1 | 46.5 µM (inactive) | 47 µM (inactive) | > 100 µM (inactive) | 26.4 µM (inactive) | 34 µM (inactive) | 92.3 µM (inactive) | 78.3 µM (inactive) | > 100 µM (inactive) | 93.5 µM (inactive) | 93.1 µM (inactive) | 53.8 µM (inactive) | 88.7 µM (inactive) | 34.2 µM (inactive) | 95.1 µM (inactive) | 41.4 µM (inactive) | > 100 µM (inactive) | 46.5 µM (inactive) | 31.8 µM (inactive) | 54.8 µM (inactive) | 50.7 µM (inactive)
O=[N+]([O-])c1cccc2nc3ccccc3c(NCCCN3CCOCC3)c12 | < 0.0106 µM (active) | < 0.01 µM (active) | 0.0273 µM (active) | < 0.0127 µM (active) | < 0.01 µM (active) | 0.0302 µM (active) | < 0.016 µM (active) | 0.0405 µM (active) | 0.0154 µM (active) | < 0.0124 µM (active) | < 0.0116 µM (active) | 0.0189 µM (active) | < 0.01 µM (active) | 0.0184 µM (active) | 0.0256 µM (active) | 0.0194 µM (active) | 0.0304 µM (active) | < 0.01 µM (active) | 0.0276 µM (active) | 0.0163 µM (active)
C=CC1(CC/C(=C\[N+](=O)[O-])c2ccc(OC)c(OC)c2)OCC(C)(C)CO1 | 17.1 µM (inactive) | 17.8 µM (inactive) | 13.8 µM (inactive) | 18 µM (inactive) | 18.9 µM (inactive) | 5.27 µM (inactive) | 18.3 µM (inactive) | 24 µM (inactive) | 15.5 µM (inactive) | 17.8 µM (inactive) | 13.9 µM (inactive) | 25.9 µM (inactive) | 18.2 µM (inactive) | 20.6 µM (inactive) | 18.7 µM (inactive) | 19.1 µM (inactive) | 16.9 µM (inactive) | 3.61 µM (inactive) | 23.1 µM (inactive) | 13.2 µM (inactive)
CN(C)c1ccc(/C=C2\N=C(c3ccccc3)N(c3ccc4c(c3)Sc3cc(N5C(=O)/C(=C/c6ccc(N(C)C)cc6)N=C5c5ccccc5)ccc3N4)C2=O)cc1 | 22.9 µM (inactive) | 16.7 µM (inactive) | 22.9 µM (inactive) | 25.8 µM (inactive) | 26.3 µM (inactive) | 27.5 µM (inactive) | 13.7 µM (inactive) | 27.1 µM (inactive) | > 100 µM (inactive) | 21.2 µM (inactive) | 17 µM (inactive) | 18.2 µM (inactive) | 23.9 µM (inactive) | 12.2 µM (inactive) | 15.2 µM (inactive) | 18.6 µM (inactive) | 17.5 µM (inactive) | 90.6 µM (inactive) | 15.6 µM (inactive) | 16.6 µM (inactive)
NS(=O)(=O)c1nnc(/N=C(/CCC(=O)O)C(=O)O)s1 | > 100 µM (inactive) | > 100 µM (inactive) | > 100 µM (inactive) | > 100 µM (inactive) | > 100 µM (inactive) | > 100 µM (inactive) | > 100 µM (inactive) | > 100 µM (inactive) | 20.5 µM (inactive) | > 100 µM (inactive) | > 100 µM (inactive) | > 100 µM (inactive) | > 100 µM (inactive) | > 100 µM (inactive) | > 100 µM (inactive) | > 100 µM (inactive) | > 100 µM (inactive) | > 100 µM (inactive) | > 100 µM (inactive) | > 100 µM (inactive)
CC(C)(C)OC(=O)NC(CCC(=O)OCc1ccccc1)C(=O)NCCCO (stereo not given) | > 100 µM (inactive) | > 100 µM (inactive) | > 100 µM (inactive) | > 100 µM (inactive) | > 100 µM (inactive) | > 100 µM (inactive) | > 100 µM (inactive) | > 100 µM (inactive) | > 100 µM (inactive) | > 100 µM (inactive) | > 100 µM (inactive) | > 100 µM (inactive) | > 100 µM (inactive) | > 100 µM (inactive) |  | > 100 µM (inactive) | > 100 µM (inactive) | > 100 µM (inactive) | > 100 µM (inactive) | > 100 µM (inactive)
Clc1cc2c(cc1Cl)CC(NCCN1CCCC1)CC2 (stereo not given) | 13.2 µM (inactive) | 17.9 µM (inactive) | 15 µM (inactive) | 18.7 µM (inactive) | 12.9 µM (inactive) | 14.6 µM (inactive) | 16 µM (inactive) | 21.2 µM (inactive) | 15.2 µM (inactive) | 12 µM (inactive) | 15.6 µM (inactive) | 15.1 µM (inactive) | 16.4 µM (inactive) | 17.1 µM (inactive) | 16.1 µM (inactive) | 17.8 µM (inactive) | 20.5 µM (inactive) | 10.6 µM (inactive) | 15.9 µM (inactive) | 2.87 µM (inactive)
[O-][n+]1cc(SCc2ccccc2)ncc1SCc1ccccc1 | > 10 µM (inactive) | > 10 µM (inactive) | 0.811 µM (active) | > 10 µM (inactive) | > 10 µM (inactive) | > 10 µM (inactive) | > 10 µM (inactive) | > 10 µM (inactive) | > 10 µM (inactive) | > 10 µM (inactive) | > 10 µM (inactive) | > 10 µM (inactive) | > 10 µM (inactive) | > 10 µM (inactive) | > 10 µM (inactive) | > 10 µM (inactive) |  | > 10 µM (inactive) | > 10 µM (inactive) | > 10 µM (inactive)
Cc1cc(Nc2ccc(S(=O)(=O)O)cc2)c2ccccc2n1 | > 100 µM (inactive) | > 100 µM (inactive) | > 100 µM (inactive) | > 100 µM (inactive) | > 100 µM (inactive) | > 100 µM (inactive) | 40.9 µM (inactive) | > 100 µM (inactive) | > 100 µM (inactive) | > 100 µM (inactive) | > 100 µM (inactive) | > 100 µM (inactive) |  | > 100 µM (inactive) | > 100 µM (inactive) | > 100 µM (inactive) | > 100 µM (inactive) | > 100 µM (inactive) | > 100 µM (inactive) | > 100 µM (inactive)
CC(C)(C)OC(=O)N(CCCCNC(=O)C(F)(F)F)CCCNC(=O)C(F)(F)F | > 100 µM (inactive) | > 100 µM (inactive) | > 100 µM (inactive) | > 100 µM (inactive) | > 100 µM (inactive) | 87.5 µM (inactive) | > 100 µM (inactive) | > 100 µM (inactive) | > 100 µM (inactive) | > 100 µM (inactive) | > 100 µM (inactive) | > 100 µM (inactive) | > 100 µM (inactive) | > 100 µM (inactive) | > 100 µM (inactive) | > 100 µM (inactive) | > 100 µM (inactive) | > 100 µM (inactive) | > 100 µM (inactive) | > 100 µM (inactive)
COc1ccc(C(OCC2OC(n3cc(C)c(=O)[nH]c3=O)CC2n2cc(Cn3cc(I)c(=O)[nH]c3=O)nn2)(c2ccccc2)c2ccccc2)cc1 (stereo not given) | > 100 µM (inactive) | > 100 µM (inactive) | > 100 µM (inactive) | > 100 µM (inactive) | > 100 µM (inactive) | 1.58 µM (inactive) | > 100 µM (inactive) | 44.8 µM (inactive) | 14.2 µM (inactive) | > 100 µM (inactive) | > 100 µM (inactive) | > 100 µM (inactive) |  | > 100 µM (inactive) | > 100 µM (inactive) | > 100 µM (inactive) | > 100 µM (inactive) | > 100 µM (inactive) | > 100 µM (inactive) | > 100 µM (inactive)
COc1ccc2oc(=N)c(C(N)=S)cc2c1 | 23.9 µM (inactive) | 21.4 µM (inactive) | 18.5 µM (inactive) | 29.6 µM (inactive) | 17.4 µM (inactive) | 14.3 µM (inactive) | 31.8 µM (inactive) | 23.2 µM (inactive) | 22.2 µM (inactive) | 32.4 µM (inactive) | 27.7 µM (inactive) | 18 µM (inactive) | 16.9 µM (inactive) |  | 37.1 µM (inactive) | 18.4 µM (inactive) | 31.2 µM (inactive) | 20 µM (inactive) | 29 µM (inactive) | 16 µM (inactive)
